Experimental data as given in patent publication US12447135B2 (University of South Florida, priority 2021, dated 2025).
Entries after “also recorded” stand apart in the source; their conditions may differ. Structures can show the parent of a compound that is named as a salt.

What was measured:
Format in all cases: cell-based, human
[1] = system: SK-N-SH cells; assay: Aβ-induced neurotoxicity, MTT viability assay; conditions: 10 μM CATPB, 25 μM Aβ
Description: To determine the impact of FFAR2 inhibition on Aβ-induced neuronal cell toxicity, the MTT viability assay was performed (Ronicke et al., 2008). SK-N-SH cells (1×10^3 cells per well) were plated in a 96-well plate containing DMEM medium supplemented with 10% FBS and 1% antibiotics and grown at 37° C. for 24 h. Then, media was removed, and cells were washed with PBS before being replenished with DMEM media containing 1% FBS and 10 μM FFAR2 inhibitor (CATPB, Tocris) and incubated at 37° C. for 2 h. Then, cells were treated with Aβ 25-32 peptide (25 μM, Sigma) and incubated for 4 h. Afterward, the media was replaced with 100 μl of fresh media, and 10 μl of MTT reagent (5 mg/ml in phosphate buffer [pH 7.2]) was added and mixed in each well before an additional 4 h incubation. Then, DMSO (50 μl) was added in each well and mixed thoroughly to dissolve formazan crystals. The absorbance was measured at 570 nm.

[2] = system: FFAR2 signaling; assay: Western blot of phospho-ERK1/2 in SK-N-SH cells (FFAR2 signal activation); conditions: 10 μM, 30 min
Description: To determine the FFAR2 signal activating property of selected compounds, SK-N-SH cells were treated with 10 μM of shortlisted compounds for 30 min at 37° C. and harvested for total protein extraction. […] After sonication, cell extracts were centrifuged at 8,000×g for 10 min at 4° C., and the supernatant was separated in a fresh tube. The total protein concentration of the supernatant was measured using a BCA protein assay kit. An equal amount of total protein (45 μg) from each sample was dissolved in loading buffer and loaded in 4% stacking gel and 10% separating SDS-PAGE gel and resolved at 100 V. Proteins were transferred on a 0.22 μm PVDF membrane and blots were developed with anti-ERK1/2, anti-phosphoERK1/2, ubiquitin (P4D1), and Aβ (6E10) primary antibodies followed by their secondary antibodies and bands were visualized using the Pierce™ Fast Western Blot Kit, ECL Substrate acquired using Syngene Pxi. Band densities were also quantified using NIH ImageJ software. β-actin was used as an internal control.

[3] = system: FFAR2 signaling; assay: cAMP-Glo assay, forskolin-induced cAMP in SK-N-SH cells; conditions: 10 μM compound, 10 μM forskolin
Description: FFAR2 is a Gi/o signaling receptor, which reduces cytosolic cAMP (Falomir-Lockhart et al., 2019). To determine the FFAR2 signaling activating potential of selected compounds, the cAMP-Glo™ Assay was used to measure intracellular cAMP. SK-N-SH cells (1×10^3 cells per well) were plated in a white 96-well plate for 24 h and then treated with 10 μM compounds and 10 μM forskolin (a positive control) dissolved in induction buffer. The cAMP levels were detected using a Luminescence Microplate Reader.

Compound | Aβ-induced cell death / cell viability under FFAR2 inhibition [1] | descending order of phospho-ERK1/2 levels [2] | cAMP upon Forskolin-stimulation, ascending order [3]
O=C(O)C[C@H](Cc1ccc(C(F)(F)F)cc1)NC(=O)Cc1cccc(Cl)c1 [CATPB, reference compound] | further reduced cell viability; also recorded: further exacerbated Aβ-induced cell death |  | 
CC1(C)C2CCC1(C)C(O)C2 (centres unmarked) [Breneol] |  | Fenchol>Octopamine>Carvamenthenol>Camphene>Pentanone>Synephrine>Leucinamide>Carene>α-Terpineol>Breneol>L-Fenchone>D-Fenchone>Norpseudoephedrine HCl | 
CC1(C)C(=O)[C@@]2(C)CCC1C2 [D-Fenchone] |  | Fenchol>Octopamine>Carvamenthenol>Camphene>Pentanone>Synephrine>Leucinamide>Carene>α-Terpineol>Breneol>L-Fenchone>D-Fenchone>Norpseudoephedrine HCl | 
CC(C)C[C@H](N)C(N)=O [Leucinamide] |  | Fenchol>Octopamine>Carvamenthenol>Camphene>Pentanone>Synephrine>Leucinamide>Carene>α-Terpineol>Breneol>L-Fenchone>D-Fenchone>Norpseudoephedrine HCl | 
C=C1C2CCC(C2)C1(C)C (centres unmarked) [Camphene] |  | Fenchol>Octopamine>Carvamenthenol>Camphene>Pentanone>Synephrine>Leucinamide>Carene>α-Terpineol>Breneol>L-Fenchone>D-Fenchone>Norpseudoephedrine HCl | Fenchol<Carvamenthenol<α-Terpineol<Carene<Pentanone<Octopamine<Camphene
Carvamenthenol |  | Fenchol>Octopamine>Carvamenthenol>Camphene>Pentanone>Synephrine>Leucinamide>Carene>α-Terpineol>Breneol>L-Fenchone>D-Fenchone>Norpseudoephedrine HCl | Fenchol<Carvamenthenol<α-Terpineol<Carene<Pentanone<Octopamine<Camphene
CNCC(O)c1ccc(O)cc1 (centres unmarked) [Synephrine] |  | Fenchol>Octopamine>Carvamenthenol>Camphene>Pentanone>Synephrine>Leucinamide>Carene>α-Terpineol>Breneol>L-Fenchone>D-Fenchone>Norpseudoephedrine HCl | 
C[C@H](N)[C@@H](O)c1ccccc1 [Norpseudoephedrine HCl] |  | Fenchol>Octopamine>Carvamenthenol>Camphene>Pentanone>Synephrine>Leucinamide>Carene>α-Terpineol>Breneol>L-Fenchone>D-Fenchone>Norpseudoephedrine HCl | 
CC1=CCC(C(C)(C)O)CC1 (stereo not drawn) [α-Terpineol] |  | Fenchol>Octopamine>Carvamenthenol>Camphene>Pentanone>Synephrine>Leucinamide>Carene>α-Terpineol>Breneol>L-Fenchone>D-Fenchone>Norpseudoephedrine HCl | Fenchol<Carvamenthenol<α-Terpineol<Carene<Pentanone<Octopamine<Camphene
NCC(O)c1ccc(O)cc1 (centres unmarked) [Octopamine] |  | Fenchol>Octopamine>Carvamenthenol>Camphene>Pentanone>Synephrine>Leucinamide>Carene>α-Terpineol>Breneol>L-Fenchone>D-Fenchone>Norpseudoephedrine HCl | Fenchol<Carvamenthenol<α-Terpineol<Carene<Pentanone<Octopamine<Camphene
CC1(C)C(=O)[C@@]2(C)CC[C@H]1C2 [L-Fenchone] |  | Fenchol>Octopamine>Carvamenthenol>Camphene>Pentanone>Synephrine>Leucinamide>Carene>α-Terpineol>Breneol>L-Fenchone>D-Fenchone>Norpseudoephedrine HCl | 
Carene |  | Fenchol>Octopamine>Carvamenthenol>Camphene>Pentanone>Synephrine>Leucinamide>Carene>α-Terpineol>Breneol>L-Fenchone>D-Fenchone>Norpseudoephedrine HCl | Fenchol<Carvamenthenol<α-Terpineol<Carene<Pentanone<Octopamine<Camphene
